Earlier results in patent US20100317664A1, “METHODS OF AFFECTING GASTROINTESTINAL TRANSIT AND GASTRIC EMPTYING, AND COMPOUNDS USEFUL THEREIN” (priority 2007, published 2010).

Key:
rats = settings: parenteral injection to rats

- constipation (humans; oral administration, high doses (3000 mg/day), humans): causes constipation
Structure (SMILES): N[C@@H](Cc1ccc(Cl)cc1)C(=O)O (racemic) [p-chlorophenylalanine]
- adverse psychological effects (humans; in vivo): adverse psychological effects, such as dizziness, nausea and uneasiness
- entry into the central nervous system (humans; in vivo): readily gets into the central nervous system
- gastrointestinal motility (rats): decreased their gastrointestinal motility
